“And” between values parts separate entries of the source, which are not always exact repeats. Identical values can stand only once.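 Following 48 hours of exposure in 96-well plates, responses at five concentrations were used to interpolate endpoints linearly. The concentration for 50% growth inhibition is given as GI50. TGI: total growth inhibition.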
Experiments:
Experiment in all cases: DTP human tumour cell line panel, 48 h
[1] = tested on: HCT-116 colon
[2] = tested on: HL-60(TB) leukemia
[3] = tested on: OVCAR-4 ovarian
[4] = tested on: HCT-15 colon
[5] = tested on: HCC-2998 colon
[6] = tested on: CCRF-CEM leukemia
[7] = tested on: OVCAR-8 ovarian
[8] = tested on: A549 NSCLC
[9] = tested on: SF-295 CNS
[10] = tested on: SK-OV-3 ovarian

Row | Structure (SMILES) | TGI [1] | TGI [2] | TGI [3] | TGI [4] | TGI [5] | TGI [6] | TGI [7] | TGI [8] | TGI [9] | TGI [10] | GI50 [1] | GI50 [2] | GI50 [3] | GI50 [4] | GI50 [5] | GI50 [6] | GI50 [7] | GI50 [8] | GI50 [9] | GI50 [10]
1 | CCOC1NC(=O)Oc2ccccc21 (centres undefined) | > 100 µM | > 100 µM | > 100 µM | > 100 µM | > 100 µM | > 100 µM | > 100 µM | > 100 µM | > 100 µM | > 100 µM |  |  |  |  |  |  |  |  |  | 
2 | COC(=O)C1Cc2c([nH]c3ccccc23)C=N1 (centres undefined) | > 100 µM | > 100 µM | > 100 µM | > 100 µM | > 100 µM | > 100 µM | > 100 µM | > 100 µM | > 100 µM | > 100 µM |  |  |  |  |  |  |  |  |  | 
3 | Cc1cccc(C)c1NC(=O)C(=O)C1C(=O)N(c2ccccc2)N=C1N (centres undefined) | > 100 µM | > 100 µM | > 100 µM | > 100 µM | > 100 µM | > 100 µM | > 100 µM | > 100 µM | > 100 µM | > 100 µM |  |  |  |  |  |  |  |  |  | 
4 | COc1cc2c(/C=C3\C(=O)Nc4ccc(Br)cc43)c(Cl)n(C)c2cc1C | 7.17 µM | 16.9 µM | 24.8 µM | 8.06 µM | 4.62 µM | 23.2 µM | 20.3 µM | 14.5 µM | 1.16 µM | 18.6 µM | 1.61 µM | 3.09 µM | 4.12 µM | 1.92 µM | 1.66 µM | 2.94 µM | 5.12 µM | 2.56 µM | 0.327 µM | 3.87 µM
5 | O=C(CC1C(=O)Nc2ccccc2S1=O)Nc1cccc(Cl)c1 (centres undefined) | > 67.3 µM | > 64.2 µM | > 100 µM | > 100 µM | > 100 µM | > 57.6 µM | > 71.9 µM | > 100 µM | > 100 µM | > 100 µM |  |  |  |  |  |  |  |  |  | 
6 | N#Cc1c2ccccc2c2nnc3cc(Cl)c(Cl)cc3n12 | > 100 µM | 70.2 µM | > 100 µM | > 100 µM | 82.1 µM | > 100 µM | > 100 µM | > 100 µM | > 100 µM | > 100 µM | 34.2 µM | 22.6 µM | 40.8 µM | 33 µM | 23 µM | 85.4 µM | 40 µM | 47.7 µM | 93.7 µM | > 100 µM
7 | COC(=O)c1ccc2c(c1)nc(-c1ccc(Cl)cc1)n2-c1cc(C(C)(C)C)[nH]n1 | 12.3 µM | 19 µM | > 100 µM | > 100 µM | 19.8 µM | > 100 µM | 58.2 µM | 94.5 µM | 8.98 µM | 31 µM | 3.46 µM | 4.03 µM | 3.4 µM | 4.36 µM | 3.9 µM | 4.91 µM | 7.33 µM | 4.03 µM | 2.48 µM | 3.71 µM
8 | Cc1nc2cc(O)c(O)cc2cc1Oc1ccc(NC(=O)Nc2ccc(Cl)c(Cl)c2)cc1 | 13.6 µM | 22.4 µM | > 32.5 µM | > 32.5 µM | 14.6 µM | 21.8 µM | > 32.5 µM | 26.2 µM | > 32.5 µM | > 32.5 µM | 2.24 µM | 9.02 µM | 9.73 µM | 5.47 µM | 6.7 µM | 6.19 µM | 5.77 µM | 8.99 µM | 11.4 µM | 11.7 µM
9 | CC(C)(C)NNc1c([N+](=O)[O-])cnn(-c2ccccc2)c1=O | 5.63 µM | 5.24 µM | 6.61 µM | 10.1 µM | 11.8 µM | 3.4 µM | 4.74 µM | 32.4 µM | 20.1 µM | 16 µM |  |  |  |  |  |  |  |  |  | 
10 | COc1ccccc1Nc1nc(-c2cc3cccc(C(F)(F)F)c3oc2=O)cs1 | 11.1 µM | 0.521 µM | > 63.3 µM | > 100 µM | > 47.7 µM | > 100 µM | > 100 µM | > 100 µM | 24.2 µM | > 93.9 µM | 0.0805 µM | 0.186 µM | 0.185 µM | 0.151 µM | 0.344 µM | 0.291 µM | 0.301 µM | 0.261 µM | 0.0353 µM | 0.237 µM
11 | Cn1c(=O)c(F)c(Nc2ccc(I)cc2F)c2c(=O)n(C[C@@H](O)CO)cnc21 | 11.5 µM | 23.1 µM | > 100 µM | 43.2 µM and > 8.26 µM | 0.0969 µM and 0.57 µM | 52 µM and > 7.18 µM | > 100 µM | 58.7 µM and > 4.08 µM | > 78.3 µM | > 68.8 µM | < 0.01 µM and 0.00832 µM | < 0.01 µM and 0.00141 µM | 6.33 µM and 1.21 µM | 1.9 µM and 0.873 µM | < 0.01 µM and 0.0028 µM |  | 7.91 µM | 0.234 µM and 0.11 µM | 14.1 µM and > 2.11 µM | 15.1 µM
12 | COc1cc(/C=C/C(=O)c2ccc(Nc3nc(Nc4ccc(F)cc4)nc(Nc4ccc(F)cc4)n3)cc2)cc(OC)c1OC | > 100 µM | > 100 µM | > 100 µM | > 100 µM | > 100 µM | > 100 µM | > 100 µM | > 100 µM | > 100 µM | > 100 µM | 2.56 µM | 1 µM | > 100 µM | 5.53 µM | 27.7 µM | 2.35 µM | 1.94 µM | 8.27 µM | 28.8 µM | 80.7 µM
13 | Fc1ccc(Nc2nc(Nc3ccc(-c4nc5ccccc5[nH]4)cc3)nc(N3CCCC3)n2)cc1 | 3.52 µM | 6.61 µM | 14.6 µM | 6.03 µM | 6.25 µM | 10.4 µM | 5.81 µM | 9.1 µM | 4.37 µM | 31.6 µM | 1.78 µM | 2.64 µM | 3.65 µM | 2.25 µM | 2.39 µM | 2.98 µM | 2.36 µM | 3.07 µM | 1.97 µM | 15.9 µM
14 | COc1ccc(C(=O)Nc2cccc(C3CC(=O)c4c(cc(OC)c(OC)c4OC)O3)c2)cc1 (centres undefined) | > 100 µM | 3.36 µM | 30.7 µM | > 100 µM | 87.1 µM | > 100 µM | 20.5 µM | > 100 µM | 63.8 µM | 98.4 µM | 0.381 µM | 1 µM | 3.11 µM | 0.475 µM | 3.46 µM | 0.426 µM | 2.79 µM | 3.31 µM | 1.72 µM | 3.63 µM
